Assay: mn = molality of the nth substance listed, in mol/kg
Settings: 101.3 kPa, Liquid; for speed of sound: Sing-around technique in a fixed-path interferometer; for mass density: Vibrating tube method

COC(=O)CC(=O)[O-].[K+] [potassium 3-methoxy-3-oxopropanoate] + O
Settings	mass density, 288.15 K [kg/m3]	mass density, 293.15 K [kg/m3]	mass density, 298.15 K [kg/m3]	speed of sound, 288.15 K [m/s]	speed of sound, 293.15 K [m/s]	speed of sound, 298.15 K [m/s]
m1 = 0.0128	1000.03	999.122	997.951	1468.1	1484	1498.1
m1 = 0.0148	1000.18	999.272	998.099	1468.3	1484.2	1498.4
m1 = 0.0189	1000.47	999.553	998.377	1468.8	1484.7	1498.8
m1 = 0.0253	1000.94	1000.02	998.84	1469.6	1485.4	1499.4
m1 = 0.0316	1001.39	1000.47	999.281	1470.3	1486.1	1500.1
m1 = 0.0444	1002.3	1001.37	1000.17	1471.8	1487.4	1501.3
m1 = 0.0512	1002.81	1001.87	1000.67	1472.4	1488.2	1502
m1 = 0.0637	1003.7	1002.74	1001.53	1474	1489.5	1503.3
m1 = 0.0836	1005.11	1004.14	1002.91	1476	1491.5	1505.1
m1 = 0.1286	1008.32	1007.31	1006.05	1481.1	1496.2	1509.5
m1 = 0.1868	1012.39	1011.34	1010.04	1487.4	1502	1514.9
m1 = 0.2644	1017.68	1016.57	1015.21	1495.4	1509.6	1522.1
m1 = 0.3285	1022.02	1020.84	1019.45	1502.2	1516.1	1528
m1 = 0.3591	1024	1022.81	1021.39	1505	1518.6	1530.5
